The target of this experiment is T1, human Edg-1 receptor (Homo sapiens, UniProt P21453).
T1 construct: FLAG (N); expressed in transfected cells; membrane preparation
T1 sequence (P21453 whole entry): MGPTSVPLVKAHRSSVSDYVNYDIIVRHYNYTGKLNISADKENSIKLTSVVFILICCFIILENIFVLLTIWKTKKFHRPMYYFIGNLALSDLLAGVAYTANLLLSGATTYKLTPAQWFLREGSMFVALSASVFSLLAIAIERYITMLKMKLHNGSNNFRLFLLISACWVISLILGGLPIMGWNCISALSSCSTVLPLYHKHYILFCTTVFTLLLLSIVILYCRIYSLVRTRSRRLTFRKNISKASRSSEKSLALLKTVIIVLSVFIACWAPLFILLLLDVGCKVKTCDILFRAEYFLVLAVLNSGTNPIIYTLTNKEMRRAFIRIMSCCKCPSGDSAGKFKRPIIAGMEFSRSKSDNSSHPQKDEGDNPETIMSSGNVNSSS
Put plainly: GTP-γ-S assay using human Edg-1 receptors (scintillation proximity assay, CHO Flp-In cell membrane preparation). The format is biochemical. The conditions noted are these: test compound at 10 μM; high control 10 μM S1P regarded as 100% activation; [35S]GTP-γ-S binding, triplicate; read-out: % Activation (Edg-1 receptor activation in percent of the activation by 10 μM S1P). From the text: A) GTP-γ-S Assay Using Human Edg-1 Receptors
In order to determine the Edg-1 receptor activation by the compounds of the invention, a GTP-γ-S (guanosine 5′-[thio]triphosphate) assay for G-protein coupled receptor binding based on the scintillation proximity assay principle was used, employing a cell membrane preparation from a CHO Flp-In cell line which constitutively overexpresses the human Edg-1 receptor.
The Flp-In™ expression system (Invitrogen, cat. no. K6010-01) allows the generation of stable mammalian cell lines into which the gene of interest has been integrated through homologous recombination at a specific genomic location called Flp Recombination Target (FRT) site by means of a Flp recombinase encoded by the pOG44 expression plasmid. The integration of the pcDNA5/FRT expression construct into the Flp-In host cell line genome results in the transcription of the gene of interest. The stably transfected cells become hygromycin-resistant.
One day prior to transfection, 200 000 Flp-In-CHO cells were seeded in Ham F-12 medium (Invitrogen, cat. no. 31765) supplemented with 10% fetal calf serum (FCS; Perbio Science, cat. no. SH30068.03) in a 6-well plate and incubated at 37° C./5% CO2 overnight. Using the FuGENE® 6 transfection reagent (Roche, cat. no. 11988387001), cells were cotransfected with the Flp recombinase expression plasmid pOG44 and a modified plasmid additionally containing the edg-1 gene (accession no. NM_001400) termed as pcDNA5-FRT-TO_nFLAG_DEST-EDG-1 with a 9:1 ratio. To obtain the modified pcDNA5-FRT-TO_nFLAG_DEST plasmid, the Invitrogen plasmid pcDNA5/FRT/TO (Invitrogen, cat. no. V6520-20) was adapted to the Gateway® (Invitrogen) cloning system by inserting a Gateway cassette containing attR recombination sites flanking a ccdB gene and a chloramphenicol-resistance gene (Gateway conversion system, Invitrogen, cat. no. 11828-029). In addition a FLAG tag epitope was added before the 5′ att recombination site to allow recombinant expression of N-terminally FLAG-tagged proteins.
For the transfection of one well, 1.08 μg of pOG44 and 0.12 μg of pcDNA5-FRT-TO_nFLAG_DEST-EDG-1 were mixed to 100 μl of serum-free Ham F-12 medium containing 6 μl of FuGENE® 6 transfection reagent. After 20 min of incubation, the transfection reagent/DNA complex was distributed dropwise on the cells. The cells were incubated for 24 h at 37° C. Then the cells from 3 wells were transferred to a T75 flask (Greiner Cellstar®, cat. no. 658175) containing Ham F-12 medium supplemented with 10% of FCS but without antibiotic and were incubated another 24 h. 48 h after transfection, the medium was replaced by selection medium (Ham F-12 supplemented with 10% of FCS and 300 μg/ml of hygromycin B (Invitrogen, cat. no. 10687-010)). The medium was exchanged every 2 to 3 days until a resistant population of cells had grown. […] After 2 weeks of selection, the cells were transferred into T175 flasks (Greiner Cellstar®, cat. no. 660175) and cultivated for batch production. Cells were harvested from the culture flasks by short treatment (2 to 5 min) with Accutase (PAA, cat. no. L11-007), resuspended in selection medium (see above) and centrifuged at 200×g for 5 min. The cells were resuspended in a mixture of 90% of FCS and 10% of dimethylsulfoxide and stored frozen in liquid nitrogen.
A membrane preparation was obtained by standard methods from the afore-described CHO Flp-In cell line constitutively overexpressing the human Edg-1 receptor. Briefly, the cryopreserved cells were taken in culture and grown until confluency in T175 cell culture flasks (Becton Dickinson, cat. no. 35 5001). […]
(SPA uses beads or plates that emit light when radiolabelled molecules are held near them.)
For `CCOc1nc(Oc2cccc(Cl)c2)nc2oc(-c3cc(C)c(OCC(=O)O)c(C)c3)nc12` [Example 38, {4-[5-(3-chlorophenoxy)-7-ethoxy-oxazolo[5,4-d]pyrimidin-2-yl]-2,6-dimethyl-phenoxy}-acetic acid], the activation at 10 µM was determined as 55%.
To `CCOc1nc(Oc2cc(F)ccc2F)nc2oc(-c3cc(C)c(OCC(=O)O)c(C)c3)nc12` [Example 39, {4-[5-(2,5-difluorophenoxy)-7-ethoxy-oxazolo[5,4-d]pyrimidin-2-yl]-2,6-dimethyl-phenoxy}-acetic acid] belongs 121%.
To `CCCOc1nc(Oc2cccc(CC)c2)nc2oc(-c3cc(C)c(OCC(=O)O)c(C)c3)nc12` [Example 40, {4-[5-(3-ethylphenoxy)-7-propoxy-oxazolo[5,4-d]pyrimidin-2-yl]-2,6-dimethyl-phenoxy}-acetic acid] belongs 95%; to `CCCOc1nc(Oc2cccc(OC)c2)nc2oc(-c3cc(C)c(OCC(=O)O)c(C)c3)nc12` [Example 41, {4-[5-(3-methoxyphenoxy)-7-propoxy-oxazolo[5,4-d]pyrimidin-2-yl]-2,6-dimethylphenoxy}-acetic acid], 73%.
The result for `CCCOc1nc(Oc2cc(C)cc(F)c2)nc2oc(-c3cc(C)c(OCC(=O)O)c(C)c3)nc12` [Example 42, {4-[5-(3-fluoro-5-methylphenoxy)-7-propoxy-oxazolo[5,4-d]pyrimidin-2-yl]-2,6-dimethyl-phenoxy}-acetic acid] reads 66%.
Turning to `CCCOc1nc(Oc2ccc(F)c(C)c2)nc2oc(-c3cc(C)c(OCC(=O)O)c(C)c3)nc12` [Example 43, {4-[5-(4-fluoro-3-methylphenoxy)-7-propoxy-oxazolo[5,4-d]pyrimidin-2-yl]-2,6-dimethyl-phenoxy}-acetic acid], the activation at 10 µM was determined as 60%.
Consider `CCCOc1nc(Oc2ccc(C)cc2F)nc2oc(-c3cc(C)c(OCC(=O)O)c(C)c3)nc12` [Example 44, {4-[5-(2-fluoro-4-methylphenoxy)-7-propoxy-oxazolo[5,4-d]pyrimidin-2-yl]-2,6-dimethylphenoxy}-acetic acid], for which the activation at 10 µM worked out at 43%.
As to `CCCOc1nc(Oc2cc(C)ccc2F)nc2oc(-c3cc(C)c(OCC(=O)O)c(C)c3)nc12` [Example 45, {4-[5-(2-fluoro-5-methylphenoxy)-7-propoxy-oxazolo[5,4-d]pyrimidin-2-yl]-2,6-dimethylphenoxy}-acetic acid], the activation at 10 µM is 67%.
To `CCCOc1nc(Oc2ccc(Cl)cc2)nc2oc(-c3cc(C)c(OCC(=O)O)c(C)c3)nc12` [Example 46, {4-[5-(4-chlorophenoxy)-7-propoxy-oxazolo[5,4-d]pyrimidin-2-yl]-2,6-dimethylphenoxy}-acetic acid] belongs 59%; to `CCCOc1nc(Oc2ccccc2Cl)nc2oc(-c3cc(C)c(OCC(=O)O)c(C)c3)nc12` [Example 47, {4-[5-(2-chlorophenoxy)-7-propoxy-oxazolo[5,4-d]pyrimidin-2-yl]-2,6-dimethylphenoxy}-acetic acid], 86%.
The result for `CCCOc1nc(Oc2cncc(Cl)c2)nc2oc(-c3cc(C)c(OCC(=O)O)c(C)c3)nc12` [Example 48, {4-[5-(5-chloropyridin-3-yloxy)-7-propoxy-oxazolo[5,4-d]pyrimidin-2-yl]-2,6-dimethyl-phenoxy}-acetic acid] reads 115%; that for `CCCOc1nc(Oc2cccc(F)c2F)nc2oc(-c3cc(C)c(OCC(=O)O)c(C)c3)nc12` [Example 49, {4-[5-(2,3-difluorophenoxy)-7-propoxy-oxazolo[5,4-d]pyrimidin-2-yl]-2,6-dimethylphenoxy}-acetic acid], 103%; that for `CCCOc1nc(Oc2cc(F)cc(F)c2)nc2oc(-c3cc(C)c(OCC(=O)O)c(C)c3)nc12` [Example 50, {4-[5-(3,5-difluorophenoxy)-7-propoxy-oxazolo[5,4-d]pyrimidin-2-yl]-2,6-dimethyl-phenoxy}-acetic acid], 86%.
`CCCOc1nc(Oc2ccc(F)c(F)c2)nc2oc(-c3cc(C)c(OCC(=O)O)c(C)c3)nc12` [Example 51, {4-[5-(3,4-difluorophenoxy)-7-propoxy-oxazolo[5,4-d]pyrimidin-2-yl]-2,6-dimethylphenoxy}-acetic acid]: the activation at 10 µM was found to be 49%.
Take `CCCOc1nc(Oc2cccc3c2CCC3)nc2oc(-c3cc(C)c(OCC(=O)O)c(C)c3)nc12` [Example 52, {4-[5-(indan-4-yloxy)-7-propoxy-oxazolo[5,4-d]pyrimidin-2-yl]-2,6-dimethylphenoxy}-acetic acid]: the activation at 10 µM amounted to 54%.
The result for `CCCOc1nc(Oc2ccc3c(c2)CCC3)nc2oc(-c3cc(C)c(OCC(=O)O)c(C)c3)nc12` [Example 53, {4-[5-(indan-5-yloxy)-7-propoxy-oxazolo[5,4-d]pyrimidin-2-yl]-2,6-dimethylphenoxy}-acetic acid] reads 55%.
The result for `CCCOc1nc(Oc2cccc(Cl)c2C)nc2oc(-c3cc(C)c(OCC(=O)O)c(C)c3)nc12` [Example 54, {4-[5-(3-chloro-2-methylphenoxy)-7-propoxy-oxazolo[5,4-d]pyrimidin-2-yl]-2,6-dimethyl-phenoxy}-acetic acid] reads 107%.
`CCCOc1nc(Oc2ccc(C)c(Cl)c2)nc2oc(-c3cc(C)c(OCC(=O)O)c(C)c3)nc12` [Example 55, {4-[5-(3-chloro-4-methylphenoxy)-7-propoxy-oxazolo[5,4-d]pyrimidin-2-yl]-2,6-dimethylphenoxy}-acetic acid]: the activation at 10 µM worked out at 66%.
For `CCCOc1nc(Oc2cc(Cl)ccc2C)nc2oc(-c3cc(C)c(OCC(=O)O)c(C)c3)nc12` [Example 56, {4-[5-(5-chloro-2-methylphenoxy)-7-propoxy-oxazolo[5,4-d]pyrimidin-2-yl]-2,6-dimethyl-phenoxy}-acetic acid], the activation at 10 µM was determined as 78%.
The result for `CCCOc1nc(Oc2ccc3ccccc3c2)nc2oc(-c3cc(C)c(OCC(=O)O)c(C)c3)nc12` [Example 57, {2,6-dimethyl-4-[5-(naphthalen-2-yloxy)-7-propoxy-oxazolo[5,4-d]pyrimidin-2-yl]-phenoxy}-acetic acid] reads 58%.
The result for `CCCOc1nc(Oc2cnc3ccccc3c2)nc2oc(-c3cc(C)c(OCC(=O)O)c(C)c3)nc12` [Example 58, {2,6-dimethyl-4-[7-propoxy-5-(quinolin-3-yloxy)-oxazolo[5,4-d]pyrimidin-2-yl]-phenoxy}-acetic acid] reads 75%; that for `CCCOc1nc(Oc2ccc(Cl)cc2F)nc2oc(-c3cc(C)c(OCC(=O)O)c(C)c3)nc12` [Example 59, {4-[5-(4-chloro-2-fluorophenoxy)-7-propoxy-oxazolo[5,4-d]pyrimidin-2-yl]-2,6-dimethyl-phenoxy}-acetic acid], 72%; that for `CCCOc1nc(Oc2cc(F)cc(Cl)c2)nc2oc(-c3cc(C)c(OCC(=O)O)c(C)c3)nc12` [Example 60, {4-[5-(3-chloro-5-fluorophenoxy)-7-propoxy-oxazolo[5,4-d]pyrimidin-2-yl]-2,6-dimethyl-phenoxy}-acetic acid], 59%.
To `CCCOc1nc(Oc2ccc(F)cc2Cl)nc2oc(-c3cc(C)c(OCC(=O)O)c(C)c3)nc12` [Example 61, {4-[5-(2-chloro-4-fluorophenoxy)-7-propoxy-oxazolo[5,4-d]pyrimidin-2-yl]-2,6-dimethyl-phenoxy}-acetic acid] belongs 97%.

Source of the values: patent US8748436B2, “Carboxylic acid derivatives having a 2,5,7-substituted oxazolopyrimidine ring” (Sanofi, priority 2010, dated 2014).
